How the values were obtained:
AR = biological target: T1, AR (Homo sapiens, UniProt P10275, T878A); assay: AR transcriptional activity assay (LNCaP-ARR2PB-eGFP cells); type: cell-based; settings: 5 nM DHT
T1 construct: The cells of LNCaP-ARR2PB-eGFP were; endogenous in cells; host or cells: LNCaP-ARR2PB-eGFP
T1 sequence (P10275 1-920 T878A): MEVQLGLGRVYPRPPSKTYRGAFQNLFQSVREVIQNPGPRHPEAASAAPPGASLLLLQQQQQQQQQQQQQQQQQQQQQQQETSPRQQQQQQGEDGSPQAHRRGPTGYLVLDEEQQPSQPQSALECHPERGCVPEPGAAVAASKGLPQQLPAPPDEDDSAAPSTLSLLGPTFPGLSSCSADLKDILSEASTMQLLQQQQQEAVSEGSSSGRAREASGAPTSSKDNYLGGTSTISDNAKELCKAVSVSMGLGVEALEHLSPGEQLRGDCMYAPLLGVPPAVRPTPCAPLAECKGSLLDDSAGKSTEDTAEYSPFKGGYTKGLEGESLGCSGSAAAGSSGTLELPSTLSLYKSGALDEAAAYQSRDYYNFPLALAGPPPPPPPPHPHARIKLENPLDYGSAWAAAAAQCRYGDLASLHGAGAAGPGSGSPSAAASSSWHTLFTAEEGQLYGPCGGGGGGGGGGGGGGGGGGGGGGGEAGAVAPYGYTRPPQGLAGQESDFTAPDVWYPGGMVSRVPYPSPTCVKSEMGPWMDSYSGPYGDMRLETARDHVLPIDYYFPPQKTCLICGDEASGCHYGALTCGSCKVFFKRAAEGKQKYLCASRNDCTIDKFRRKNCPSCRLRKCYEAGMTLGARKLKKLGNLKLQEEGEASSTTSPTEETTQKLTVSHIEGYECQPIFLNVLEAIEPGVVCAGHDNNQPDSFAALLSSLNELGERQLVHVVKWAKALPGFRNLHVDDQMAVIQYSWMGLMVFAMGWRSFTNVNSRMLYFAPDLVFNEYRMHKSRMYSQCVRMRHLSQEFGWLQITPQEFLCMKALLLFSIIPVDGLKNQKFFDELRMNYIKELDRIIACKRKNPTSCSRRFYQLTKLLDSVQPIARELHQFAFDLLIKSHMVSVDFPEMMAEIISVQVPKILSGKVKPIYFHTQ
Method: University, Hangzhou, China), respectively. […]
AR Transcriptional Activity Assay
The AR transcriptional activities were determined using the constructed LNCaP-ARR2PB-eGFP cell as previously reported.11, 12 The cells of LNCaP-ARR2PB-eGFP were […]
by seeding into a 96 -well plate (3.5× 10^4 cells/well) for 1 day incubation at 37 °C. Then, the cells were treated with 5 nM DHT and various concentrations of compounds (10 μM […]
the fluorescence intensities were determined using a Synergy H1 microplate reader

AR LBP = biological target: T2, AR LBP (Rattus norvegicus, UniProt P15207); assay: Competitive ligand-binding assay (PolarScreen AR competitor assay)
T2 construct: purchased Invitrogen Life Technologies A15880
Method: Competitive Ligand Binding Assay
The binding affinities of M17 and M17-B15 to the LBP of AR LBD were determined
using PolarScreen™ Androgen Receptor Competitor Assay Kit (#A15880, Invitrogen Life
Technologies) according to the user manual. […]

[1] = system: secreted PSA from LNCaP cells; assay: Secreted prostate-specific antigen (PSA) assay; type: cell-based
Method: Secreted Prostate-Specific Antigen (PSA) Assay
After the AR transcriptional activity assay was completed, 300 μl of the media
supernatant including the secreted PSA was measured using […]® 2000 XPi
Immunoassay System (Siemens Ltd., Erlangen, Germany). […]

NIH-3T3 = assay: MTT cell viability assay, NIH-3T3; type: cell-based, murine; settings: 72 h
Method: (§1) 3-(4,5-dimethythiazol-2-yl)-2,5-diphenyl-2-H-tetrazolium bromide (MTT) colorimetric assay was employed to investigate cell viability. Cells were seeded into 96-well plates with 2-5× 10^3 cells per well (5× 10^3 cells/well for LNCaP, 22RV1, NIH-3T3, GES-1, Chang, […]
(§2) NCI-H1299, U2OS, U87) for 1 day incubation at 37 °C. Then, the cells were treated with various concentrations of compounds (22.86 nM - 50 μM) and incubated for 72 h. Then, 10 μl MTT (5 mg/ml) was added into each well and incubated for 4 h. Afterwards, 100 μl of triplex 10% SDS-0.1% HCl-phosophate-buffered saline (PBS) solutions was added into each well and incubated for overnight. The absorbance at 570 nm was measured (Eon, Bioteck, Winooski, VT). […]

LNCaP = assay: MTT cell viability assay, LNCaP; type: cell-based; settings: 72 h
Method: as §1, §2

T2 sequence (P15207 651-882 limits assumed): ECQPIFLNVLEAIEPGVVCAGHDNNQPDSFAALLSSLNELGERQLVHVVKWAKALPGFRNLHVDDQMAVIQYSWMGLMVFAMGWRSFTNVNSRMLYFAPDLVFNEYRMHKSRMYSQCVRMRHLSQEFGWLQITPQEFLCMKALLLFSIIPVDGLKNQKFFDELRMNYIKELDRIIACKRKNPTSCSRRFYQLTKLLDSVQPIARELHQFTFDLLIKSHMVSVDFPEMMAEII

## CC(=O)Cc1nsc(NC(=O)c2cc(-c3ccc(Cl)c(Cl)c3)oc2C)n1 [Compound M17]
AR; LNCaP-ARR2PB-eGFP cells, 3 days
  IC50: 950 ± 390 nM
AR; at 10 μM
  inhibition at 10 µM: 92.7%
AR LBP
  binding to the conventional LBP: excluded
[1]
  inhibition of the secretion of PSA: dose-dependently inhibits
NIH-3T3
  cytotoxicity against NIH-3T3: negligible cytotoxicity
LNCaP
  inhibition of LNCaP viability: dose-dependent manner in the inhibition

— article PMC10141604, “Small-Molecule Inhibition of Androgen Receptor Dimerization as a Strategy against Prostate Cancer” (ACS Central Science, 2023)
